Assays:
primary rat hepatocytes [1] = assay: DCA-induced cytotoxicity, LDH release assay; settings: for inhibition of DCA-induced LDH release: 100 μM bile acid, 50 μM DCA
Experimental: (§1) Primary rat hepatocytes were incubated with 100 μM UDCA, methylated UDCA, or no addition (control) for 12 h. Cells were then exposed to 50 μM DCA for 40 h before processing for cytotoxicity activity, including LDH (top), and adenylate kinase (middle) assays, and cell viability (bottom).
(§2) Briefly, rats were anesthetized with phenobarbital sodium (100 mg/kg body weight) injected into the peritoneal cavity. After administration of heparin (200 units/kg body weight) in the tail vein, the abdomen was opened and the portal vein exposed and cannulated. The liver was then perfused at 37° C. in situ with a calcium-free Hanks' Balanced Salt Solution (HBSS) for 10 min, and then with 0.05% collagenase type IV in calcium-present HBSS for another 10 min.
Hepatocyte suspensions were obtained by passing collagenase-digested livers through 125 μm gauze and washing cells in Complete William's E medium (William's E medium, Sigma-Aldrich Corp., St Louis, Mo., USA) supplemented with 26 mM sodium bicarbonate, 23 mM HEPES, 0.01 units/mL insulin, 2 mM L-glutamine, 10 nM dexamethasone, 100 units/mL penicillin, and 10% heat-inactivated fetal bovine serum (Invitrogen Corp., Carlsbad, Calif., USA). Viable primary rat hepatocytes were enriched by low-speed centrifugation at 200 g for 3 min. Cell viability was determined by trypan blue exclusion and was typically 80-85%. After isolation, hepatocytes were ressuspended in Complete William's E medium and plated on Primaria™ tissue culture dishes (BD Biosciences, San Jose, Calif., USA) at 5×10^4 cells/cm2.
Cells were maintained at 37° C. in a humidified atmosphere of 5% CO2 for 6 h, to allow attachment. […]
General cell death or cytotoxicity was evaluated using the lactate dehydrogenase (LDH) Cytotoxicity Detection KitPLUS (Roche Diagnostics GmbH, Mannheim, Germany), following the manufacturer's instructions. […] Finally, absorbance was measured at 490 nm, with 620 nm as reference, using a Bio-Rad model 680 microplate reader (Bio-Rad Laboratories, Hercules, Calif., USA).

primary rat hepatocytes [2] = assay: Cytotoxicity of the bile acids alone in primary cultures of rat hepatocytes; settings: bile acid alone
Source text: MTS is bioreduced by cells into a formazan product that is soluble in tissue culture medium. […] The quantity of formazan product as measured by the amount of 490 nm absorbance is directly proportional to the number of living cells in culture.

primary rat hepatocytes [3] = assay: Cell viability with the bile acids alone in primary cultures of rat hepatocytes; assay type: cell-based; settings: bile acid alone
Experimental: as §2
Hepatocyte suspensions were obtained by passing collagenase-digested livers through 125 μm gauze and washing cells in Complete William's E medium (William's E medium, Sigma-Aldrich Corp., St Louis, Mo., USA) supplemented with 26 mM sodium bicarbonate, 23 mM HEPES, 0.01 units/mL insulin, 2 mM L-glutamine, 10 nM dexamethasone, 100 units/mL penicillin, and 10% heat-inactivated fetal bovine serum (Invitrogen Corp., Carlsbad, Calif., USA). Viable primary rat hepatocytes were enriched by low-speed centrifugation at 200 g for 3 min. Cell viability was determined by trypan blue exclusion and was typically 80-85%. […]
General cell death was also determined using a bioluminescent cytolysis assay, designed to measure the release of adenylate kinase (AK) enzyme from damaged cells (ToxiLight™ BioAssay Kit, Lonza). […] The absorbance of the formazan at 490 nm can be measured directly from 96-well assay plates without additional processing. […]

primary rat hepatocytes [4] = assay: DCA-induced cytotoxicity, adenylate kinase release (ToxiLight Assay); assay type: cell-based; settings: 100 μM bile acid, cells exposed to 50 μM DCA
Experimental: as §1
(§3) Briefly, rats were anesthetized with phenobarbital sodium (100 mg/kg body weight) injected into the peritoneal cavity. After administration of heparin (200 units/kg body weight) in the tail vein, the abdomen was opened and the portal vein exposed and cannulated. […]
(§4) Hepatocyte suspensions were obtained by passing collagenase-digested livers through 125 μm gauze and washing cells in Complete William's E medium (William's E medium, Sigma-Aldrich Corp., St Louis, Mo., USA) supplemented with 26 mM sodium bicarbonate, 23 mM HEPES, 0.01 units/mL insulin, 2 mM L-glutamine, 10 nM dexamethasone, 100 units/mL penicillin, and 10% heat-inactivated fetal bovine serum (Invitrogen Corp., Carlsbad, Calif., USA). […] Cell viability was determined by trypan blue exclusion and was typically 80-85%. […]
(§5) General cell death was also determined using a bioluminescent cytolysis assay, designed to measure the release of adenylate kinase (AK) enzyme from damaged cells (ToxiLight™ BioAssay Kit, Lonza). […]

primary rat hepatocytes [5] = assay: DCA-induced loss of cell viability (CellTiter-Fluor Cell Viability Assay); assay type: cell-based; settings: pretreatment with 100 μM bile acid, 50 μM DCA
Experimental: as §1, §3, §4, §5

primary rat hepatocytes [6] = assay: TGF-β1-induced loss of cell viability (MTS activity); assay type: cell-based; settings: 100 μM for 12 h, then 1 nM TGF-β1 for 36 h
Experimental: FIG. 5. […] Primary rat hepatocytes were pre-incubated with 100 μM methylated UDCA, or no addition (control) for 12 h. Cells were then exposed to 1 nM TGF-β1 for 36 h before processing for MTS activity.

Row | SMILES | inhibition of DCA-induced LDH release (primary rat hepatocytes [1]) | cytotoxicity (primary rat hepatocytes [2]; 200 and 400 μM concentrations) | cytotoxicity (primary rat hepatocytes [2]; concentrations up to 100 μM) | cell viability (primary rat hepatocytes [3]; from 10 to 100 μM concentrations) | viability (primary rat hepatocytes [3]; highest bile acid concentrations (200 and 400 μM)) | protection against DCA-induced adenylate kinase release (ToxiLight Assay) (primary rat hepatocytes [4]) | rescue of cell viability in cells exposed to DCA (primary rat hepatocytes [5]) | inhibition of TGF-β1-induced reduction in MTT metabolism / loss of cell viability (primary rat hepatocytes [6]) | inhibition of TGF-β1-induced reduction in MTT metabolism / loss of cell viability (primary rat hepatocytes [6]; listed as Methylated UDCA) | prevention of DCA-induced cytotoxicity (FIG. 4 legend) (primary rat hepatocytes [1]; 100 μM for 12 h, then 50 μM DCA for 40 h, LDH and adenylate kinase assays)
1 | C[C@H](CCC(=O)O)[C@H]1CC[C@H]2[C@@H]3[C@@H](O)C[C@@H]4C[C@H](O)CC[C@]4(C)[C@H]3CC[C@]12C [UDCA, ursodeoxycholic acid, reference compound] | ~70% | – | – | – | – | – | – | – | – | –
2 | CO[C@H]1C[C@@H]2C[C@H](O)CC[C@]2(C)[C@H]2CC[C@]3(C)[C@@H]([C@H](C)CCC(=O)O)CC[C@H]3[C@H]12 [methylated UDCA, 3α-hydroxy,7β-methoxy-5β-cholan-24-oic acid] | ~70% | an increase in cytotoxicity was evident | remained largely unchanged | tended to increase cell viability | decreased viability | slightly better protection | effective at rescuing cell viability | effective at inhibiting TGF-β1-induced reduction in MTT metabolism | prevents TGF-β1-induced loss of cell viability | prevents DCA-induced cytotoxicity

From patent US11072630B2, “Fluorinated and alkylated bile acids” (Metselex, Inc., priority 2015, dated 2021)
